This is an account of results in patent US11326165B1, “Methods and compositions for modulating splicing” (SKYHAWK THERAPEUTICS, INC., priority 2017, dated 2022).

The subject of test [1] is A673 cells. The test can be described thus: Cell viability and proliferation, A673 cells (crystal violet). Conditions: cell proliferation IC50 in NHDF cells over A673 cells, 72 h. It counts as cell-based. On the procedure: Small molecule splicing modulators were tested in a dose-response assay using A673 cells and NHDF cells.
A673 cells or NHDF cells were first plated in 96-well plastic tissue culture plates (10,000 cells per well). The cells were treated with vehicle alone (DMSO), or increasing concentrations of SMSM compounds for 72 h. Following treatment, cell proliferation was determined using a crystal violet assay. The relative cell proliferation at each concentration was determined.

Test [2] relates to A375 xenografts. Kind of test: A375 xenografts in nude mice, tumor growth inhibition. The test is classed as in vivo. The protocol: (§1) Studies were performed to assess the effects of in vivo SMSM treatment on glioblastoma, breast, pancreatic, prostate, melanoma, lymphoma and Ewing sarcoma tumors. Studies were also performed to assess the effects of in vivo SMSM treatment on mRNA levels. Immunocompromised nude mice with pre-existing glioblastoma, breast, pancreatic, prostate, melanoma, lymphoma and Ewing sarcoma xenografts were treated with vehicle or SMSMs. Tumor tissues from subcutaneous xenografts were broken into a powder using a BioPulverizer (Biospec Products, Inc.). After SMSM treatment, mRNA was isolated from the xenografts and was analyzed by qRT-PCR.
(§2) Tumor size was measured 2 times per week in two dimensions using a caliper. Studies were terminated when the tumor size in the vehicle treated group reached 2,000 mm^3. Each mouse was bled at 2 hrs after the last dose and at least 50 μl of plasma was collected from each mouse. All of the collected plasma samples and retainer dosing solutions for each dose level were used for bioanalytical measurements. All tumors were also collected and weighed. One necrosis-free tumor fragment of approximately 50 mg was taken from each tumor and flash-frozen for RNA isolation. The remaining tumor was flash frozen for PK analysis.
The effects of in vivo SMSM treatments on pre-existing subcutaneous glioblastoma, breast, pancreatic, prostate, melanoma, lymphoma and Ewing sarcoma xenografts were assessed. For these in vivo experiments, 1×10^6Raji, A375, A673, MDA-MB-231, BxPC-3, PC-3 or U87 (cells re-suspended in 100 μl PBS were subcutaneously injected into the flanks of nude mice. When the tumor reached approximately 100 mm^3 (volume=(¾)(π)(length/2)(width/2)^2), the treatments indicated in the tables below were initiated.

Test [3] has as its system A673 xenografts. Kind of test: A673 xenografts in nude mice, tumor growth inhibition. It counts as in vivo. The settings on record: A673 xenograft (FIGS. 16A-C), 1 mg/kg BID. On the procedure:
Dose range and time course studies comparing anti-neoplastic effects of SMSM−167 and SMSM−151 against vehicle were conducted.
Female NCrNu mice were used. Age range of enrolment was 7-10 weeks. A total of 75 animals were for the studies.
The A673 tumor cell line was maintained in vitro as a monolayer culture. […] The cells growing in an exponential growth phase were harvested and counted for tumor inoculation.
Each mouse were inoculated into a right flank with the single cell suspension of 95% viable tumor cells (5×10^6 cells/mouse) in serum-free RPMI 1640 Media for tumor development. Treatments were administered when mean tumor size reached approximately 75 mm^3.
Before commencement of treatment, all animals were weighed and assigned to treatment groups using a randomization procedure. Mice were randomized into groups based upon their tumor sizes to ensure that each group had approximately the same mean tumor size and range of tumor size.
After inoculation, the animals were checked daily for morbidity and mortality. At the time of routine monitoring, the animals were checked for any effects of tumor growth on normal behavior such as mobility, food and water consumption, body weight gain/loss, eye/hair matting and any other abnormal effects. Deaths and observed clinical signs were recorded.
Body weight were measured prior to tumor inoculation and prior to the treatment administration and then daily. Tumor size were measured 2-3 times per week in two dimensions using a caliper, and the volume were expressed in mm^3 using the formula: V=0.5×a×b^2 where a and b are the long and short diameters of the tumor, respectively.
Studies were terminated when the tumor size in the vehicle treated group reached 2,000 mm^3. Each mouse was bled at 2 hrs after the last dose and at least 50 μl of plasma were collected from each mouse. All of the collected plasma samples and retainer dosing solutions for each dose level were used for bioanalytical measurements. All tumors were also collected and weighed. One necrosis-free tumor fragment of approximately 50 mg was taken from each tumor and flash-frozen for RNA isolation. The remaining tumor was flash frozen for PK analysis.
as §1, §2
The effects of in vivo SMSM treatments on pre-existing subcutaneous glioblastoma, breast, pancreatic, prostate, melanoma, lymphoma and Ewing sarcoma xenografts were assessed. For these in vivo experiments, 1×10^6Raji, A375, A673, MDA-MB-231, BxPC-3, PC-3 or U87 (cells re-suspended in 100 μl PBS were subcutaneously injected into the flanks of nude mice. When the tumor reached approximately 100 mm^3 (volume=(¾)(π)(length/2)(width/2)^2), the treatments indicated in the tables below were initiated. […]

As for `O=C(/C=C/c1cccc(S(=O)(=O)Nc2ccccc2)c1)NO` [Belinostat], in test [1], the “Ratio NHDF/A673 IC50” value was not above 10.
Still for that read-out and setting: the same measure for `Nc1ccccc1NC(=O)c1ccc(CNc2nccc(-c3cccnc3)n2)cc1` [Mocetinostat]: not above 10.
Take `Cc1[nH]c2ccccc2c1CCNCc1ccc(/C=C/C(=O)NO)cc1` [Panobinostat]: the “Ratio NHDF/A673 IC50” value in test [1] is listed as not above 10.
Take `CC(/C=C/C(=O)NO)=C\[C@@H](C)C(=O)c1ccc(N(C)C)cc1` [Trichostatin A]: the “Ratio NHDF/A673 IC50” value in test [1] is on record as not above 10.
For the molecule `CCCS(=O)(=O)Nc1ccc(F)c(C(=O)c2c[nH]c3ncc(-c4ccc(Cl)cc4)cc23)c1F` [Vemurafenib, vemurafenib, reference compound], the “Tumor Growth Inhibition (TGI) (%)” value in test [2] (A375 xenograft (FIGS. 17A-B), 50 mg/kg p.o. BID, D4) came out at 9.47%; in test [2] (A375 xenograft (FIGS. 17A-B), 50 mg/kg p.o. BID, D6), 9.98%; in test [2] (A375 xenograft (FIGS. 17A-B), 50 mg/kg p.o. BID, D10), 24.32%; in test [2] (A375 xenograft (FIGS. 17A-B), 50 mg/kg p.o. BID, D13), 50.53%; in test [2] (A375 xenograft (FIGS. 17A-B), 50 mg/kg p.o. BID, D17) it was 69.66%; in test [2] (A375 xenograft (FIGS. 17A-B), 50 mg/kg p.o. BID, D21), 82.03%. Further, the “Tumor Growth Inhibition (TGI) (%)” value is reported as 111.22% in test [2] (A-375 xenograft (FIGS. 21A-B), 50 mg/kg p.o. BID *21 days, D4); 112.77% in test [2] (A-375 xenograft (FIGS. 21A-B), 50 mg/kg p.o. BID *21 days, D7); 114.44% in test [2] (A-375 xenograft (FIGS. 21A-B), 50 mg/kg p.o. BID *21 days, D11); 109.55% in test [2] (A-375 xenograft (FIGS. 21A-B), 50 mg/kg p.o. BID *21 days, D14); 107.72% in test [2] (A-375 xenograft (FIGS. 21A-B), 50 mg/kg p.o. BID *21 days, D18); 106.56% in test [2] (A-375 xenograft (FIGS. 21A-B), 50 mg/kg p.o. BID *21 days, D21).
For `CN(c1ccc(-c2ccc(-c3cn[nH]c3)cc2O)nn1)[C@@H]1C[C@H]2CCC[C@@H](C1)N2` [compound 160, 2-(6-(((1R,3s,5S)-9-azabicyclo[3.3.1]nonan-3-yl)(methyl)amino)pyridazin-3-yl)-5-(1H-pyrazol-4-yl)phenol], the “Ratio NHDF/A673 IC50” value in test [1] was more than 225. Also, the “Tumor Growth Inhibition (TGI) (%)” value in test [3] (Day 3) was −0.94%; in test [3] (Day 6), 25.67%; in test [3] (Day 10) it was 25.67%; in test [3] (Day 13), 42.90%; in test [2] (A375 xenograft (FIGS. 17A-B), 3 mg/kg ip. BID, D4) it was 33.09%; in test [2] (A375 xenograft (FIGS. 17A-B), 3 mg/kg ip. BID, D6) it was 92.99%. The “Tumor Growth Inhibition (TGI) (%)” value in test [2] (A375 xenograft (FIGS. 17A-B), 3 mg/kg ip. BID, D10) is recorded as 109.59%; in test [2] (A375 xenograft (FIGS. 17A-B), 3 mg/kg ip. BID, D13) it was 105.98%; in test [2] (A375 xenograft (FIGS. 17A-B), 3 mg/kg ip. BID, D17) it was 99.59%; in test [2] (A375 xenograft (FIGS. 17A-B), 3 mg/kg ip. BID, D21) it was 94.68%; in test [2] (A375 xenograft (FIGS. 17A-B), 3 mg/kg ip. QD, D4), 3.40%; in test [2] (A375 xenograft (FIGS. 17A-B), 3 mg/kg ip. QD, D6) it was 47.56%. For the same molecule, the “Tumor Growth Inhibition (TGI) (%)” value in test [2] (A375 xenograft (FIGS. 17A-B), 3 mg/kg ip. QD, D10) is given as 44.13%; in test [2] (A375 xenograft (FIGS. 17A-B), 3 mg/kg ip. QD, D13), 40.08%; in test [2] (A375 xenograft (FIGS. 17A-B), 3 mg/kg ip. QD, D17) it was 45.12%; in test [2] (A375 xenograft (FIGS. 17A-B), 3 mg/kg ip. QD, D21), 53.98%; in test [2] (A375 xenograft (FIGS. 17A-B), 10 mg/kg ip. QD*5day, D4), 72.84%; in test [2] (A375 xenograft (FIGS. 17A-B), 10 mg/kg ip. QD*5day, D6), 118.42%. Besides, the “Tumor Growth Inhibition (TGI) (%)” value in test [2] (A375 xenograft (FIGS. 17A-B), 10 mg/kg ip. QD*5day, D10) amounted to 112.78%; in test [2] (A375 xenograft (FIGS. 17A-B), 10 mg/kg ip. QD*5day, D13), 103.12%; in test [2] (A375 xenograft (FIGS. 17A-B), 10 mg/kg ip. QD*5day, D17), 97.84%; in test [2] (A375 xenograft (FIGS. 17A-B), 10 mg/kg ip. QD*5day, D21) it was 95.59%; in test [2] (A-375 xenograft (FIGS. 21A-B), 1.5 mg/kg i.p. BID *21 days, D4), 3.60%; in test [2] (A-375 xenograft (FIGS. 21A-B), 1.5 mg/kg i.p. BID *21 days, D7), 18.11%. For the same molecule, the “Tumor Growth Inhibition (TGI) (%)” value in test [2] (A-375 xenograft (FIGS. 21A-B), 1.5 mg/kg i.p. BID *21 days, D11) is 30.05%; in test [2] (A-375 xenograft (FIGS. 21A-B), 1.5 mg/kg i.p. BID *21 days, D14), 30.28%; in test [2] (A-375 xenograft (FIGS. 21A-B), 1.5 mg/kg i.p. BID *21 days, D18), 42.80%; in test [2] (A-375 xenograft (FIGS. 21A-B), 1.5 mg/kg i.p. BID *21 days, D21), 37.88%; in test [2] (A-375 xenograft (FIGS. 21A-B), 3 mg/kg i.p. BID *21 days, D4), 38.68%; in test [2] (A-375 xenograft (FIGS. 21A-B), 3 mg/kg i.p. BID *21 days, D7), 46.64%. Besides, the “Tumor Growth Inhibition (TGI) (%)” value was found to be 94.46% in test [2] (A-375 xenograft (FIGS. 21A-B), 3 mg/kg i.p. BID *21 days, D11); 89.78% in test [2] (A-375 xenograft (FIGS. 21A-B), 3 mg/kg i.p. BID *21 days, D14); 81.80% in test [2] (A-375 xenograft (FIGS. 21A-B), 3 mg/kg i.p. BID *21 days, D18); 71.33% in test [2] (A-375 xenograft (FIGS. 21A-B), 3 mg/kg i.p. BID *21 days, D21).
Turning to `CN(c1ccc(-c2ccc(-c3ccn(C)c(=O)c3)cc2O)nn1)[C@H]1C[C@]2(C)CC[C@](C)(C1)N2` [compound 168, 4-(4-(6-(((1R,3s,5S)-1,5-dimethyl-8-azabicyclo[3.2.1]octan-3-yl)(methyl)amino)pyridazin-3-yl)-3-hydroxyphenyl)-1-methylpyridin-2(1H)-one], in test [1], the “Ratio NHDF/A673 IC50” value is listed as more than 500.
